Each structure is given as a SMILES string.

In the assay the target is BTK (Homo sapiens (Human), UniProt Q06187). Briefly: Btk kinase assay (HTRF). Conditions: [ATP]=80 μM, BTK=3.4 nM; read-out: BTK Inhibition. It is filed as biochemical. The procedure, abridged: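 BTK (3.4 nM) incubated 1 h with inhibitor, 80 μM ATP and 1 μM peptide substrate in 50 mM HEPES pH 7.0 with BSA and orthovanadate. Reaction stopped with EDTA plus Eu-antibody/XL665; HTRF 665/615 ratio read after 1 h, IC50 calculated relative to no-inhibitor and no-enzyme controls.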
Sequence of BTK (Q06187 whole entry, species assumed): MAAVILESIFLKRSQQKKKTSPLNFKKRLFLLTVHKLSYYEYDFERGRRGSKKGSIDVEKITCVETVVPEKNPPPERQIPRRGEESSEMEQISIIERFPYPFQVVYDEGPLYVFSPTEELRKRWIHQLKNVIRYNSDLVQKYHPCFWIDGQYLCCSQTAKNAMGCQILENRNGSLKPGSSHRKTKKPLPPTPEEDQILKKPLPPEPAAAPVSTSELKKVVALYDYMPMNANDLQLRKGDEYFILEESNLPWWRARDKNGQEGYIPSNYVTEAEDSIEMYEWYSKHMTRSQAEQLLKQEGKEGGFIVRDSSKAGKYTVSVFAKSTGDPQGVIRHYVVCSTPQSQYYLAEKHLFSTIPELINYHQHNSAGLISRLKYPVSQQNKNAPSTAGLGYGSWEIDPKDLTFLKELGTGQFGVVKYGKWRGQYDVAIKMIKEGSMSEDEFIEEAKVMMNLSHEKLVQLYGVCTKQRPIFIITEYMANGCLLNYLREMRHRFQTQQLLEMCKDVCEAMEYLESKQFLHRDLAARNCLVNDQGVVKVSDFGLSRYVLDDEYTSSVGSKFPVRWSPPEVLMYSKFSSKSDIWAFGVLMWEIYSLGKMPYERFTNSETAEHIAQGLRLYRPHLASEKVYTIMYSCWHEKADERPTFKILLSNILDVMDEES
A general note: In TR-FRET formats the signal depends on donor and acceptor labels being close together.
With `C=CC(=O)Nc1cccc(-n2c(=O)n(-c3ccc(OCc4ccccc4Cl)cc3)c3cnccc32)c1` [Example 231, N-(3-(3-(4-((2-chlorobenzyl)oxy)phenyl)-2-oxo-2,3-dihydro-1H-imidazo[4,5-c]pyridin-1-yl)phenyl)acrylamide], the IC50 lay within 10 to 100 nM.
For `C=CC(=O)Nc1cccc(-n2c(=O)n(-c3ccc(OCc4ccccc4F)cc3)c3cnccc32)c1` [Example 228, N-(3-(3-(4-((2-fluorobenzyl)oxy)phenyl)-2-oxo-2,3-dihydro-1H-imidazo[4,5-c]pyridin-1-yl)phenyl)acrylamide] the value was 100 to 1000 nM.
Then `C=CC(=O)Nc1cccc(-n2c(=O)n(-c3ccc(Oc4cc(F)cc(F)c4)cc3)c3cnccc32)c1` [Example 127, N-(3-(3-(4-(3,5-difluorophenoxy)phenyl)-2-oxo-2,3-dihydro-1H-imidazo[4,5-c]pyridin-1-yl)phenyl)acrylamide], with 100 to 1000 nM; and `C=CC(=O)N1CC[C@@H](n2c(=O)n(-c3ccc(Oc4cccc(OC)c4)c(Cl)c3)c3cnccc32)C1` [Example 45, (R)-1-(1-acryloylpyrrolidin-3-yl)-3-(3-chloro-4-(3-methoxyphenoxy)phenyl)-1H-imidazo[4,5-c]pyridin-2(3H)-one], with 10 to 100 nM; and `C=CC(=O)N1CC[C@@H](n2c(=O)n(-c3ccc(Oc4cccnc4)cc3)c3cnccc32)C1` [Example 68, (R)-1-(1-acryloylpyrrolidin-3-yl)-3-(4-(pyridin-3-yloxy)phenyl)-1H-imidazo[4,5-c]pyridin-2(3H)-one], with 100 to 1000 nM.
Take `C=CC(=O)Nc1cccc(-n2c(=O)n(-c3ccc(Oc4ccc(Cl)c(Cl)c4)cc3)c3cnccc32)c1` [Example 159, N-(3-(3-(4-(3,4-dichlorophenoxy)phenyl)-2-oxo-2,3-dihydro-1H-imidazo[4,5-c]pyridin-1-yl)phenyl)acrylamide]: the IC50 was 10 to 100 nM.
For `C=CC(=O)N1CCC[C@@H](n2c(=O)n(-c3ccc(Oc4cccc(Cl)c4F)cc3)c3cnccc32)C1` [Example 59, (R)-1-(1-acryloylpiperidin-3-yl)-3-(4-(3-chloro-2-fluorophenoxy)phenyl)-1H-imidazo[4,5-c]pyridin-2(3H)-one] the value was 10 to 100 nM; for `C=CC(=O)Nc1cccc(-n2c(=O)n(-c3ccc(NC(=O)c4ccc(OC)cc4)cc3)c3cnccc32)c1` [Example 264, N-(4-(1-(3-acrylamidophenyl)-2-oxo-1H-imidazo[4,5-c]pyridin-3(2H)-yl)phenyl)-4-methoxybenzamidee], 100 to 1000 nM; for `C=CC(=O)N1CCC[C@@H](n2c(=O)n(-c3ccc(Oc4cccc(OC)c4C)cc3)c3cnccc32)C1` [Example 142, (R)-1-(1-acryloylpiperidin-3-yl)-3-(4-(3-methoxy-2-methylphenoxy)phenyl)-1H-imidazo[4,5-c]pyridin-2(3H)-one], 10 to 100 nM.
Regarding `C=CC(=O)Nc1cccc(-n2c(=O)n(-c3ccc(C(=O)Nc4cccc(C)c4)cc3)c3cnccc32)c1` [Example 255, 4-(1-(3-acrylamidophenyl)-2-oxo-1H-imidazo[4,5-c]pyridin-3(2H)-yl)-N-(m-tolyl)benzamide], the IC50 fell in the range of 1000 to 10000 nM.
In the case of `C=CC(=O)N1CCC(n2c(=O)n(-c3ccc(Oc4ccccc4)c(C)c3)c3cnccc32)C1` (stereo not shown) [Example 91, 1-(1-acryloylpyrrolidin-3-yl)-3-(3-methy1-4-phenoxyphenyl)-1,3-dihydro-2H-imidazo[4,5-c]pyridin-2-one], the IC50 fell in the range of 10 to 100 nM.
As to `C=CC(=O)N1CC[C@H](n2c(=O)n(-c3ccc(Oc4ccccc4)cc3)c3c(/C(N)=N/O)nccc32)C1` [Example 179, (S,Z)-1-(1-acryloylpyrrolidin-3-yl)-N′-hydroxy-2-oxo-3-(4-phenoxyphenyl)-2,3-dihydro-1H-imidazo[4,5-c] pyridine-4-carboximidamide], the IC50 was not below 10000 nM.
Then `C=CC(=O)Nc1cccc(-n2c(=O)n(-c3cccc(OCc4ccccc4)c3)c3cnccc32)c1` [Example 233, N-(3-(3-(3-(benzyloxy)phenyl)-2-oxo-2,3-dihydro-1H-imidazo[4,5-c]pyridin-1-yl)phenyl)acrylamide], with 10 to 100 nM.
Then `C=CC(=O)N1CCC[C@@H](n2c(=O)n(-c3ccc(Oc4cccc(F)c4OC)cc3)c3cnccc32)C1` [Example 140, (R)-1-(1-acryloylpiperidin-3-yl)-3-(4-(3-fluoro-2-methoxyphenoxy)phenyl)-1H-imidazo[4,5-c]pyridin-2(3H)-one], with 100 to 1000 nM; and `C=CC(=O)Nc1cccc(-n2c(=O)n(-c3ccc(OCc4ccc(Cl)c(Cl)c4)cc3)c3cnccc32)c1` [Example 218, N-(3-(3-(4-((3,4-dichlorobenzyl)oxy)phenyl)-2-oxo-2,3-dihydro-1H-imidazo[4,5-c]pyridin-1-yl)phenyl)acrylamide], with 100 to 1000 nM; and `C=CC(=O)N1CC[C@@H](n2c(=O)n(-c3ccc(OCc4ccccc4)cc3)c3cnccc32)C1` [Example 246], with 100 to 1000 nM.
As for `C=CC(=O)N1CC[C@@H](n2c(=O)n(-c3ccc(OCc4ccccc4C(F)(F)F)cc3)c3cnccc32)C1` [Example 210, (R)-1-(1-acryloylpyrrolidin-3-yl)-3-(4-((2-(trifluoromethyl)benzyl)oxy)phenyl)-1H-imidazo[4,5-c]pyridine-2(3H)-one], the IC50 fell in the range of 10 to 100 nM.
On to `C=CC(=O)N1CC[C@@H](n2c(=O)n(-c3ccc(C(=O)N4CCOCC4)cc3)c3cnccc32)C1` [Example 250, (R)-1-(1-acryloylpyrrolidin-3-yl)-3-(4-(morpholine-4-carbonyl)phenyl)-1H-imidazo[4,5-c]pyridin-2(3H)-one], for which the IC50 lay within 1000 to 10000 nM.
For `C=CC(=O)Nc1cccc(-n2c(=O)n(-c3cccc(-c4ccc(C)cc4)c3)c3cnccc32)c1` [Example 272, N-(3-(3-(4′-methyl-[1,1′-biphenyl]-3-yl)-2-oxo-2,3-dihydro-1H-imidazo [4,5-c]pyridin-1-yl)phenyl)acrylamide] the value was 100 to 1000 nM; for `C=CC(=O)N1CCC[C@@H](n2c(=O)n(-c3ccc(Oc4cccc(F)c4F)cc3)c3cnccc32)C1` [Example 61, (R)-1-(1-acryloylpiperidin-3-yl)-3-(4-(2,3-difluorophenoxy)phenyl)-1H-imidazo[4,5-c]pyridin-2(3H)-one], 10 to 100 nM.
Then `C=CC(=O)Nc1cccc(-n2c(=O)n(-c3ccc(Oc4cccc(C)c4)c(Cl)c3)c3cnccc32)c1` [Example 144, N-(3-(3-(3-chloro-4-(m-tolyloxy)phenyl)-2-oxo-2,3-dihydro-1H-imidazo[4,5-c]pyridin-1-yl)phenyl)acrylamide], with 10 to 100 nM; and `C=CC(=O)Nc1cccc(-n2c(=O)n(-c3ccc(Oc4cccc(C(C)C)c4)cc3)c3cnccc32)c1` [Example 114, N-(3-(3-(4-(3-isopropylphenoxy)phenyl)-2-oxo-2,3-dihydro-1H-imidazo[4,5-c]pyridin-1-yl)phenyl)acrylamide], with 10 to 100 nM.
Then `C=CC(=O)N1CC[C@@H](n2c(=O)n(-c3ccc(NC(=O)c4ccc(OC)c(C(F)(F)F)c4)cc3)c3cnccc32)C1` [Example 268, (R)-N-(4-(1-(1-acryloylpyrrolidin-3-yl)-2-oxo-1H-imidazo[4,5-c]pyridin-3(2H)-yl)phenyl)-4-methoxy-3-(trifluoromethyl)benzamide], with 100 to 1000 nM; and `C=CC(=O)N1CCC[C@@H](n2c(=O)n(-c3ccc(Oc4cccc(Cl)c4Cl)cc3)c3cnccc32)C1` [Example 100, (R)-1-(1-acryloylpiperidin-3-yl)-3-(4-(2,3-dichlorophenoxy)phenyl)-1,3-dihydro-2H-imidazo[4,5-c]pyridin-2-one], with 10 to 100 nM; and `C=CC(=O)N1CC[C@@H](n2c(=O)n(-c3ccc(Oc4ccccc4)c(F)c3)c3cnccc32)C1` [Example 95, (R)-1-(1-acryloylpyrrolidin-3-yl)-3-(3-fluoro-4-phenoxyphenyl)-1,3-dihydro-2H-imidazo[4,5-c]pyridin-2-one], with 10 to 100 nM.
For the compound `C=CC(=O)Nc1cccc(-n2c(=O)n(-c3ccc(OCc4ccccc4C)cc3)c3cnccc32)c1` [Example 225, N-(3-(3-(4-((2-methylbenzyl)oxy)phenyl)-2-oxo-2,3-dihydro-1H-imidazo[4,5-c]pyridin-1-yl)phenyl)acrylamide], the IC50 is 100 to 1000 nM.
Then `C=CC(=O)N1CC[C@@H](n2c(=O)n(-c3ccc(Oc4cccc(C)c4)c(Cl)c3)c3cnccc32)C1` [Example 19, (R)-1-(1-acryloylpyrrolidin-3-yl)-3-(3-chloro-4-(m-tolyloxy)phenyl)-1H-imidazo[4,5-c]pyridin-2(3H)-one], with 10 to 100 nM; and `C=CC(=O)Nc1cccc(-n2c(=O)n(-c3ccc(OCc4ccc(C(F)(F)F)cc4)cc3)c3cnccc32)c1` [Example 242, N-(3-(2-oxo-3-(4-((4-(trifluoromethyl)benzyl)oxy)phenyl)-2,3-dihydro-1H-imidazo[4,5-c]pyridin-1-yl)phenyl)acrylamide], with 100 to 1000 nM; and `C=CC(=O)Nc1cccc(-n2c(=O)n(-c3ccc(Oc4cccc(F)c4)c(F)c3)c3cnccc32)c1` [Example 90, N-(3-(3-(3-fluoro-4-(3-fluorophenoxy)phenyl)-2-oxo-2,3-dihydro-1H-imidazo[4,5-c]pyridin-1-yl)phenyl)acrylamide], with 10 to 100 nM.
For `C=CC(=O)N1CC[C@@H](n2c(=O)n(-c3ccc(Oc4ccccc4)cc3)c3c(O)nccc32)C1` [Example 183, (R)-1-(1-acryloylpyrrolidin-3-yl)-4-hydroxy-3-(4-phenoxyphenyl)-1H-imidazo[4,5-c]pyridin-2(3H)-one] the value was not below 10000 nM; for `C=CC(=O)N1CC[C@@H](n2c(=O)n(-c3ccc(Oc4cccc(C(C)C)c4)cc3)c3cnccc32)C1` [Example 153, (R)-1-(1-acryloylpyrrolidin-3-yl)-3-(4-(3-isopropylphenoxy)phenyl)-1H-imidazo[4,5-c]pyridin-2(3H)-one], 10 to 100 nM.

The record behind these values is patent US10358446B2, “Bruton's tyrosine kinase inhibitors” (Zibo Biopolar Changsheng Pharmaceutical Co. Ltd., priority 2015, dated 2019).
